Experimental data taken from patent US20230416329A1, “A PEPTIDE WITH DISULFIDE BONDS AND INHIBITORY ACTIVITY AGAINST SERINE PROTEASES, DERIVED HYBRID PEPTIDES THEREOF, AND USES THEREOF” (INSTITUTE OF MATERIA MEDICA , CHINESE ACADEMY OF MEDICAL …, priority 2020, published 2023).
Read-outs that look alike come from different tables or passages of the source. Bridge positions count the residues as written; N and C are the ends. Peptide text beside a SMILES is read from it.

Biological target: porcine pancreatic elastase (Sus scrofa, UniProt P00772)
Assay: Elastase inhibitory activity of peptides (AAApNA hydrolysis; IC50, Ki, residual activity)
Type: biochemical
Conditions: for IC50 / Residual activity of elastase: elastase 0.5 μM, AAApNA 1 mM
Procedure: The inhibition constants of various synthetic active peptide inhibitors (molecular scaffolds) against seine proteases were measured. The substrates N-succinyl-Ala-Ala-Pro-Phe-p-nitroaniline (AAPFpNA), Nα—Benzoyl-L-arginine-4-nitroaniline hydrochloride (BApNA) and N-succinyl-[…] (AAApNA) are used in competitive binding reaction to determine the inhibitory activities against α-chymotrypsin, bovine trypsin, and porcine pancreatic elastase, respectively. Experiments for α-chymotrypsin and bovine trypsin inhibition were measured in 20 mM CaCl2, 50 mM Tris-HCl buffer (pH 7.8), and that for porcine elastase inhibition was measured in 50 mM Tris-HCl buffer (pH 8.0). The concentration of the peptide was measured using optical density (OD) at 280 nm. The Michaelis constant (Km) of the enzyme hydrolysis substrate is calculated from the initial rate of substrate hydrolysis at 405 nm. The absorbance value of the substrate was measured at 405 nm after complete hydrolysis. All data were processed using nonlinear regression.
• (1) Added a total 198 μL of reaction buffer (20 mM CaCl2, 50 mM Tris-HCl (pH 8.0)) into the 96 well plate, followed by preheating at 37° C. for 15 min. Then added 2 μL of different concentrations of substrates (pNA, dissolved in DMSO), and mixed by centrifugation at 500 rpm for 1 min. Finally, the plate was incubated at 37° C. for 30 min, and the absorbance value at 405 nm was measured. In the 200 μL of reaction system, the final concentrations of pNA were 0, 0.025, 0.05, 0.075, 0.1, 0.125, 0.15, 0.175, and 0.2 mM, respectively. Make three repetitions for each concentration and plot the OD405 m value with pNA concentration to obtain the standard curve. • (2) Added a total 190 μL of reaction buffer (20 mM CaCl2, 50 mM Tris-HCl (pH 8.0)) and 8 μL of 4.375 μM elastase into the 96 well plate, followed by preheating at 37° C. for 5 min. Then added 2 μL of different concentrations of substrates (AAApNA, dissolved in DMSO), and mixed by centrifugation at 500 rpm for 1 min. Finally, the plate was incubated at 37° C. for 30 min, and the absorbance value at 405 nm was measured. In the 200 μL of reaction system, the final concentrations of AAApNA were 0, 0.125, 0.166, 0.2, 0.25, 0.33, 0.6, 0.75, and 1.25 mM, respectively. Make three repetitions for each concentration and plot the OD405 nm value with time to obtain the corresponding curve. Divide the slope of the curve by the slope of the standard curve and the enzyme concentration to obtain the initial velocity V0 (mM/(min*mM protein). Plot the initial velocity V0 with the concentration of substrate AAApNA using Prism software, and the Michaelis constant Km value of elastase hydrolyzing AAApNA was obtained.
• (1) Added a total 190 μL of different concentrations of peptides (ECs) against elastase and reaction buffer (20 mM CaCl2, 50 mM Tris-HCl buffer (pH 8.0)) into the pre-cold 96 well plate, followed by preheating at 37° C. for 5 min and centrifugated at 500 rpm for 1 min and allowed to stand for 4 minutes. Then added 8 μL of 12.5 μM elastase and incubated at 37° C. for 10 min and centrifugated at 500 rpm for 1 min and allowed to stand for 9 minutes. Finally, added 2 μL of 100 mM AAApNA, and mixed by centrifugation at 500 rpm for 1 min. The plate was incubated at 37° C. for 60 min, and the absorbance value at 405 nm was measured. Three repetitions were made, and only reaction buffer and substrate were added in the blank control as the minimum absorption value (Min OD405 nm); Only reaction buffer, enzyme and substrate were added in the negative control as the maximum absorption value (Max OD405 nm). • (2) In the 200 μL of reaction system, the final concentrations of elastase and AAApNA were 0.5 μM and 1 mM, respectively. • (3) Data statistics
Residual activity of enzyme (%)=(1−(Max OD405 nm−Sample OD405 nm)/(Max OD405 nm−Min OD405 nm))*100 […]

Sequence of porcine pancreatic elastase (P00772 27-266): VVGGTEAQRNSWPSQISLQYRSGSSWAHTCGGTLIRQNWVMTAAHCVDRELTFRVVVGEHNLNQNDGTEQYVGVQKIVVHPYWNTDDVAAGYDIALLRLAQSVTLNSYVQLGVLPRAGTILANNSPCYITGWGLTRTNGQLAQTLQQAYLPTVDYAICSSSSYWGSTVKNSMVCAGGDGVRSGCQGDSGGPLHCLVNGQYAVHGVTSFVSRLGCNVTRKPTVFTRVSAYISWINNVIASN

## CC[C@H](C)[C@@H]1NC(=O)[C@H](CO)NC(=O)[C@H](C)NC(=O)[C@H]([C@@H](C)O)NC(=O)[C@@H](NC(=O)[C@H](CC(C)C)NC(=O)CNC(=O)CNC(=O)[C@@H](NC(=O)[C@@H]2CCCN2C(=O)[C@@H]2CCCN2C(=O)[C@@H](NC(=O)[C@H](CC(=O)O)NC(=O)[C@H](C)NC(=O)CNC(=O)[C@@H](N)CCC(N)=O)[C@@H](C)O)C(C)C)CSSC[C@@H](C(=O)N[C@@H](Cc2ccc(O)cc2)C(=O)O)NC(=O)[C@H](CCC(N)=O)NC(=O)[C@@H]2CCCN2C(=O)[C@@H]2CCCN2C1=O [EC49] (H-QGADTPPVGGLCTASIPPQCY-OH; disulfide 12-20; N-terminus and C-terminus assumed)
read-out: Ki
  Ki: 0.28 µM

## CC[C@H](C)[C@@H]1NC(=O)CNC(=O)[C@@H](N)CSSC[C@@H](C(=O)N[C@@H](CCC(N)=O)C(=O)O)NC(=O)[C@H]([C@@H](C)CC)NC(=O)[C@@H]2CCCN2C(=O)[C@@H]2CCCN2C(=O)[C@H]([C@@H](C)CC)NC(=O)[C@H](CO)NC(=O)[C@H](C)NC(=O)[C@H]([C@@H](C)O)NC(=O)[C@H](Cc2c[nH]cn2)NC1=O [EC40] (H-CGIHTASIPPICQ-OH; disulfide 1-12)
  IC50: > 50 µM

## CC[C@H](C)[C@@H]1NC(=O)[C@H](CO)NC(=O)[C@H](C)NC(=O)[C@H]([C@@H](C)O)NC(=O)[C@@H](NC(=O)[C@H](CC(C)C)NC(=O)CNC(=O)CNC(=O)[C@H](CC(=O)O)NC(=O)[C@H](CCC(=O)O)NC(=O)[C@@H](NC(=O)[C@H](C)NC(=O)[C@H](CC(N)=O)NC(=O)CNC(=O)[C@H](CC(N)=O)NC(=O)[C@@H](N)CO)C(C)C)CSSC[C@@H](C(=O)N[C@@H](Cc2ccc(O)cc2)C(=O)O)NC(=O)[C@H](CCC(N)=O)NC(=O)[C@@H]2CCCN2C(=O)[C@@H]2CCCN2C1=O [EC50] (H-SNGNAVEDGGLCTASIPPQCY-OH; disulfide 12-20; N-terminus and C-terminus assumed)
read-out: Ki
  Ki: 0.28 µM

## CC[C@H](C)[C@@H]1NC(=O)CNC(=O)[C@@H](N)CSSC[C@@H](C(=O)N[C@@H](CCC(N)=O)C(=O)O)NC(=O)[C@H]([C@@H](C)CC)NC(=O)[C@@H]2CCCN2C(=O)[C@@H]2CCCN2C(=O)[C@H]([C@@H](C)CC)NC(=O)[C@H](CO)NC(=O)[C@H](C)NC(=O)[C@H]([C@@H](C)O)NC(=O)[C@H](CC(N)=O)NC1=O [EC38] (H-CGINTASIPPICQ-OH; disulfide 1-12; C-terminus assumed)
  IC50: 1 µM

## CC[C@H](C)[C@@H]1NC(=O)[C@H](CO)NC(=O)[C@H](C)NC(=O)[C@H]([C@@H](C)O)NC(=O)[C@H](C)NC(=O)[C@H](CC(C)C)NC(=O)CNC(=O)[C@@H](N)CSSC[C@@H](C(=O)N[C@@H](Cc2ccc(O)cc2)C(=O)O)NC(=O)[C@H](CCC(N)=O)NC(=O)[C@@H]2CCCN2C(=O)[C@@H]2CCCN2C1=O [EC3] (H-CGLATASIPPQCY-OH; disulfide 1-12; N-terminus and C-terminus assumed)
  IC50: > 50 µM

## CC[C@H](C)[C@H](N)C(=O)N[C@H]1CSSC[C@@H](C(=O)N[C@@H](CCC(N)=O)C(=O)O)NC(=O)[C@H]([C@@H](C)CC)NC(=O)[C@@H]2CCCN2C(=O)[C@@H]2CCCN2C(=O)[C@H]([C@@H](C)CC)NC(=O)[C@H](CO)NC(=O)[C@H](C)NC(=O)[C@H]([C@@H](C)O)NC1=O [EC23] (H-ICTASIPPICQ-OH; disulfide 2-10; C-terminus assumed)
Peptide 0.001 μM
  Residual activity of elastase: 103.0 ± 2.2%
Peptide 0.01 μM
  Residual activity of elastase: 97.8 ± 4.8%
Peptide 0.1 μM
  Residual activity of elastase: 76.8 ± 3.1%
Peptide 0.2 μM
  Residual activity of elastase: 56.4 ± 2.9%
Peptide 0.4 μM
  Residual activity of elastase: 40.8 ± 2.0%
Peptide 0.6 μM
  Residual activity of elastase: 23.7 ± 0.2%
Peptide 1 μM
  Residual activity of elastase: 15.1 ± 0.9%
Peptide 10 μM
  Residual activity of elastase: 1.5 ± 0.3%
Peptide 100 μM
  Residual activity of elastase: −0.2 ± 0.1%
Peptide 1000 μM
  Residual activity of elastase: −0.2 ± 0.1%
read-out: Ki against elastase
  Ki: 0.07 µM

## CC[C@H](C)[C@H](N)C(=O)N[C@H]1CSSC[C@@H](C(=O)N[C@H](C(=O)O)C(C)C)NC(=O)[C@H](CCC(N)=O)NC(=O)[C@H](C)NC(=O)[C@@H]2CCCN2C(=O)[C@H]([C@@H](C)CC)NC(=O)[C@H](CO)NC(=O)[C@H](CC(C)C)NC(=O)[C@H]([C@@H](C)O)NC1=O [EC13] (H-ICTLSIPAQCV-OH; disulfide 2-10; N-terminus and C-terminus assumed)
  IC50: > 50 µM

## CC[C@H](C)[C@@H]1NC(=O)CNC(=O)[C@@H](N)CSSC[C@@H](C(=O)N[C@@H](CCC(N)=O)C(=O)O)NC(=O)[C@H]([C@@H](C)CC)NC(=O)[C@@H]2CCCN2C(=O)[C@@H]2CCCN2C(=O)[C@H]([C@@H](C)CC)NC(=O)[C@H](CO)NC(=O)[C@H](C)NC(=O)[C@H]([C@@H](C)O)NC(=O)[C@H](CO)NC1=O [EC34] (H-CGISTASIPPICQ-OH; disulfide 1-12)
  IC50: > 50 µM

## CC[C@H](C)[C@@H]1NC(=O)[C@H](CO)NC(=O)[C@H](C)NC(=O)[C@H]([C@@H](C)O)NC(=O)[C@H](CCC(=O)O)NC(=O)[C@H](CCCNC(=N)N)NC(=O)CNC(=O)[C@@H](N)CSSC[C@@H](C(=O)N[C@@H](CCCCN)C(=O)O)NC(=O)[C@H](CCC(N)=O)NC(=O)[C@@H]2CCCN2C(=O)[C@@H]2CCCN2C1=O [EC9] (H-CGRETASIPPQCK-OH; disulfide 1-12; N-terminus and C-terminus assumed)
  IC50: > 50 µM

## CC[C@H](C)[C@@H]1NC(=O)CNC(=O)[C@@H](N)CSSC[C@@H](C(=O)N[C@@H](CCC(N)=O)C(=O)O)NC(=O)[C@H]([C@@H](C)CC)NC(=O)[C@@H]2CCCN2C(=O)[C@@H]2CCCN2C(=O)[C@H]([C@@H](C)CC)NC(=O)[C@H](CO)NC(=O)[C@H](C)NC(=O)[C@H]([C@@H](C)O)NC(=O)[C@H](Cc2ccccc2)NC1=O [EC36] (H-CGIFTASIPPICQ-OH; disulfide 1-12)
  IC50: > 50 µM

## CC[C@H](C)[C@@H]1NC(=O)[C@H](CO)NC(=O)[C@H](C)NC(=O)[C@H]([C@@H](C)O)NC(=O)[C@H](CCC(=O)O)NC(=O)[C@H](CCCNC(=N)N)NC(=O)CNC(=O)[C@@H](N)CSSC[C@@H](C(=O)O)NC(=O)CNC(=O)[C@H](CCCCN)NC(=O)[C@H](CCC(N)=O)NC(=O)[C@@H]2CCCN2C(=O)[C@@H]2CCCN2C1=O [EC11] (H-CGRETASIPPQKGC-OH; disulfide 1-14; N-terminus and C-terminus assumed)
  IC50: > 50 µM

## CC[C@H](C)[C@@H]1NC(=O)[C@H](CO)NC(=O)[C@H](C)NC(=O)[C@H]([C@@H](C)O)NC(=O)[C@H](CCC(=O)O)NC(=O)[C@H](CCCNC(=N)N)NC(=O)CNC(=O)[C@@H](N)CSSC[C@@H](C(=O)O)NC(=O)[C@H](CCCCN)NC(=O)[C@H](CCC(N)=O)NC(=O)[C@@H]2CCCN2C(=O)[C@@H]2CCCN2C1=O [EC10] (H-CGRETASIPPQKC-OH; disulfide 1-13; N-terminus and C-terminus assumed)
  IC50: > 50 µM
